Data: patent publication US8486962B2, “Antifungal agents” (F2G Ltd., priority 2005, dated 2013)
≈ marks a conversion by molar mass, not a printed value.

Tests used:
Aspergillus terreus = assay: MIC, YAG medium, Aspergillus terreus; type: cell-based; settings: Aspergillus terreus; YAG medium; read-out: MIC A Terreus 4
Summary of the method: (§1)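 Yeast: RPMI + 2% glucose + 0.135M MOPS pH7.0, 1-2×10^3 cfu/ml, 35° C 24-48 h, OD485, MIC at >80% inhib. Aspergillus: YAG (1% glucose, 1% NH4Cl, 0.5% yeast extract), spores 1-2×10^4 cfu/ml, 35° C 24 h, MIC at >70% inhib. Range 50-0.05 mg/L.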

A Terreus 49 = assay: MIC, YAG medium, A Terreus 49; type: cell-based, Aspergillus terreus; settings: Aspergillus terreus; YAG medium; read-out: MIC A Terreus 49
Description: Measurement of Minimum Inhibitory Concentrations (MICs)
Between 1 and 5 mgs of compound were accurately weighed out into a sterile Eppendorf tube. The compound was dissolved in DMSO to give a solution containing 5 mg/ml. Tubes were stored at −20° C. until required.
On the day of testing thawed solutions were vortex mixed to ensure homogeneity. 30 μl of solution was removed and added to 570 μl of sterile water in a separate sterile Eppendorf. The thoroughly mixed solution was used to prepare a series of doubling dilutions in water, in a deep well plate. Eleven replicate plates were prepared using a Minitrak by aspirating 20 μl from each well into eleven clear polystyrene 96 well plates.
Spores of Aspergillus spp (Aspergillus fumigatus, Aspergillus terreus, Aspergillus niger and Aspergillus flavus) were harvested from cultures grown on Sabarauds agar for 5 days, and resuspended in PBS/Tween 80 to approx 1×10^7 cfu/ml Other filamentous fungi (Fusarium solani, Scedosporium spp., Trichophyton spp., Absidia corymbifera), were grown on Sabarauds agar for 2-10 days and spores/hyphae resuspended in PBS/Tween to give approx 1×10^7 cfU/ml. Candida species (Candida albicans, Candida glabrata, Candida krusei, Candida parapsilosis and Candida tropicalis) were grown on Sabarauds agar, cells were harvested from the agar using a sterile loop and resuspended in PBS/Tween 80 to approx 1×10^6 cfu/ml. Each organism suspension was diluted in RPMI medium, containing 2% glucose and 0.135M MOPS buffer (pH7.0) to 2×10^4 cfu/ml for Aspergillus spp and other filamentous fungi and 2×10^3 cfu/ml for yeast. 80 μl of an organism suspension was added to each well of the plate containing drug dilutions.
This produced MIC plates with a drug range 50-0.05 mg/L and organism inocula of 1-2×10^4 cfu/ml for Aspergillus spp and other filamentous fungi and 1-2×10^3 cfu/ml for yeasts. All plates were incubated for 24-48 hrs at 35° C. Growth was assessed by monitoring the optical density at 485 nm for each well. The MIC of a compound is the lowest drug concentration that inhibits growth of an organism by >80% compared with a drug free control. MICs are recorded as mg/L. Other growth media can be used for susceptibility testing, and the activity of the described compounds can also be assessed in a medium comprising, 1% glucose, 1% ammonium chloride and 0.5% yeast extract (YAG medium). To perform MIC tests in this medium, dilutions of compounds are prepared in microtitre plates as described above. Fungal strains to be tested are grown and harvested in an identical manner to that described above, each organism suspension is then diluted in YAG medium to 2×10^4 cfu/ml for Aspergillus spp and other filamentous fungi and 2×10^3 cfu/ml for yeast. 80 μl of an organism suspension was added to each well of the plate containing drug dilutions. This produced MIC plates with a drug range 50-0.05 mg/L and organism inocula of 1-2×10^4 cfu/ml for Aspergillus spp and other filamentous fungi and 1-2×10^3 cfu/ml for yeasts. All plates were incubated for 24 hrs at 35° C. Growth was assessed by monitoring the optical density at 485 nm for each well. The MIC of a compound is the lowest drug concentration that inhibits growth of an organism by >70% compared with a drug free control. MICs are recorded as mg/L. In cases where the MIC of an organism is […]0.05 mg/L the MIC is repeated using a concentration range of 0.5-0.0005 mg/L. MIC tests in YAG medium have more clear-cut endpoints and have slightly lower MICS than those performed in RPMI medium.
The following organisms were tested: Aspergillus fumigatus AF293 and Aspergillus fumigatus AF210, Aspergillus niger, Aspergillus terreus, Aspergillus favus, Candida albicans, Candida krusei, Candida tropicalis, Candida glabrata, Candida parapsilosis, Trichophyton rubrum, Trichophyton mentagrophytes, Scedosporium prolificans, Scedosporium apiospermum, Absidia corymbifera, Fusarium solani.

[1] = test system: Aspergillus fumigatus AF293; assay: MIC, YAG medium, Aspergillus fumigatus AF293; type: cell-based; settings: Aspergillus fumigatus, AF293; YAG medium; read-out: MIC A Fum. 293
Summary of the method: as §1

Aspergillus niger = assay: MIC, YAG medium, Aspergillus niger; type: cell-based; settings: Aspergillus niger; YAG medium; read-out: MIC A Niger 1
Summary of the method: as §1

Aspergillus flavus = assay: MIC, YAG medium, Aspergillus flavus; type: cell-based; settings: Aspergillus flavus; YAG medium; read-out: MIC A Flavus 01
Summary of the method: as §1

[2] = test system: Aspergillus fumigatus AF210; assay: MIC, YAG medium, Aspergillus fumigatus AF210; type: cell-based; settings: Aspergillus fumigatus, AF210; YAG medium; read-out: MIC A Fum. 210
Summary of the method: as §1

SMILES	MIC (Aspergillus terreus) [µg/mL]	MIC (A Terreus 49) [µg/mL]	MIC [1] [µg/mL]	MIC (Aspergillus niger) [µg/mL]	MIC (Aspergillus flavus) [µg/mL]	MIC [2] [µg/mL]
CCCCOC(=O)c1ccc(NC(=O)C(=O)c2c(-c3ccccc3)cc3ccccn23)cc1 [Example 144, 4-[2-Oxo-2-(2-phenyl-indolizin-3-yl)-acetylamino]-benzoic acid butyl ester]	0.062 (≈ 0.141 µM)	0.008 (≈ 0.0182 µM)	0.06 (≈ 0.136 µM)	0.008 (≈ 0.0182 µM)	0.015 (≈ 0.0341 µM)	0.062 (≈ 0.141 µM)
COc1ccc(NC(=O)C(=O)c2c(-c3ccccc3)cc3ccccn23)c(OC)c1 [Example 145, N-(2,4-Dimethoxy-phenyl)-2-oxo-(2-phenyl-indolizin-3-yl)-acetamide]	0.031 (≈ 0.0774 µM)	0.004 (≈ 0.00999 µM)	0.5 (≈ 1.25 µM)	0.031 (≈ 0.0774 µM)	0.031 (≈ 0.0774 µM)	0.5 (≈ 1.25 µM)
COc1ccc(NC(=O)C(=O)c2c(-c3ccccc3)cc3ccccn23)cn1 [Example 146, N-(6-Methoxy-pyridin-3-yl)-2-oxo-2-(2-phenyl-indolizin-3-yl)-acetamide]	0.062 (≈ 0.167 µM)	0.03 (≈ 0.0808 µM)	0.5 (≈ 1.35 µM)	0.25 (≈ 0.673 µM)	0.062 (≈ 0.167 µM)	0.5 (≈ 1.35 µM)
COc1ccc(NC(=O)C(=O)c2c(-c3cccs3)cc3ccccn23)cc1 [Example 148, N-(4-Methoxy-phenyl)-2-oxo-2-(2-thiophen-2-yl-indolizin-3-yl)-acetamide]	0.008 (≈ 0.0213 µM)	0.008 (≈ 0.0213 µM)	0.12 (≈ 0.319 µM)	0.062 (≈ 0.165 µM)	0.008 (≈ 0.0213 µM)	0.12 (≈ 0.319 µM)
COc1ccc(NC(=O)C(=O)c2c(-c3ccc(F)cc3)cc3ccccn23)c(OC)c1 [Example 149, N-(2,4-Dimethoxy-phenyl)-2-[2-(4-fluoro-phenyl)-indolizin-3-yl]-2-oxo-acetamide]	0.06 (≈ 0.143 µM)	0.031 (≈ 0.0741 µM)	0.5 (≈ 1.19 µM)	0.031 (≈ 0.0741 µM)	0.031 (≈ 0.0741 µM)	1.6 (≈ 3.82 µM)
N#Cc1ccc(NC(=O)C(=O)c2c(-c3ccccc3)cc3ccccn23)cc1 [Example 150, N-(4-Cyano-phenyl)-2-oxo-2-(2-phenyl-indolizin-3-yl)-acetamide]	0.5 (≈ 1.37 µM)	0.12 (≈ 0.328 µM)	1.6 (≈ 4.38 µM)	0.25 (≈ 0.684 µM)	0.125 (≈ 0.342 µM)	1.6 (≈ 4.38 µM)
COC(=O)c1csc(NC(=O)C(=O)c2c(-c3ccccc3)cc3ccccn23)c1 [Example 154, 5-[2-Oxo-2-(2-phenyl-indolizin-3-yl)-acetylamino]-thiophene-3-carboxylic acid methyl ester]	0.8 (≈ 1.98 µM)	0.12 (≈ 0.297 µM)	1.6 (≈ 3.96 µM)	0.05 (≈ 0.124 µM)	0.25 (≈ 0.618 µM)	1.6 (≈ 3.96 µM)
COc1ccc(NC(=O)C(=O)c2c(-c3ccc(F)cc3)cc3ccccn23)cc1 [Example 155, 2-[2-(4-Fluoro-phenyl)-indolizin-3-yl]-N-(4-methoxy-phenyl)-2-oxo-acetamide]	0.031 (≈ 0.0798 µM)	0.008 (≈ 0.0206 µM)	0.5 (≈ 1.29 µM)	0.12 (≈ 0.309 µM)	0.03 (≈ 0.0772 µM)	0.12 (≈ 0.309 µM)
Cc1ccc(NC(=O)C(=O)c2c(-c3ccc(F)cc3)cc3ccccn23)cc1 [Example 156, 2-[2-(4-Fluoro-phenyl)-indolizin-3-yl]-2-oxo-N-p-tolyl-acetamide]	0.031 (≈ 0.0832 µM)	0.015 (≈ 0.0403 µM)	0.25 (≈ 0.671 µM)	0.031 (≈ 0.0832 µM)	0.015 (≈ 0.0403 µM)	0.25 (≈ 0.671 µM)
Cc1ccc(NC(=O)C(=O)c2c(-c3cccs3)cc3ccccn23)cc1 [Example 165, 2-Oxo-2-(2-thiophen-2-yl-indolizin-3-yl)-N-p-tolyl-acetamide]	0.06 (≈ 0.166 µM)	0.062 (≈ 0.172 µM)	0.8 (≈ 2.22 µM)	0.25 (≈ 0.694 µM)	0.062 (≈ 0.172 µM)	1.6 (≈ 4.44 µM)
COc1ccc(NC(=O)C(=O)c2c(-c3cccs3)cc3ccccn23)c(OC)c1 [Example 166, N-(2,4-Dimethoxy-phenyl)-2-oxo-2-(2-thiophen-2-yl-indolizin-3-yl)-acetamide]	0.12 (≈ 0.295 µM)	0.062 (≈ 0.153 µM)	1.6 (≈ 3.94 µM)	0.25 (≈ 0.615 µM)	0.12 (≈ 0.295 µM)	3.1 (≈ 7.63 µM)
COc1ccc(NC(=O)C(=O)c2c(-c3cccs3)cc3ccccn23)cn1 [Example 167, N-(6-Methoxy-pyridin-3-yl)-2-oxo-2-(2-thiophen-2-yl-indolizin-3-yl)-acetamide]	0.25 (≈ 0.662 µM)	0.062 (≈ 0.164 µM)	1.6 (≈ 4.24 µM)	0.5 (≈ 1.32 µM)	0.062 (≈ 0.164 µM)	1.6 (≈ 4.24 µM)
Cc1ccc(NC(=O)C(=O)c2c(-c3cccnc3)cc3ccccn23)cc1 [Example 173, 2-Oxo-2-(2-pyridin-3-yl-indolizin-3-yl)-N-p-tolyl-acetamide]	0.12 (≈ 0.338 µM)	0.12 (≈ 0.338 µM)	0.5 (≈ 1.41 µM)	0.5 (≈ 1.41 µM)	0.12 (≈ 0.338 µM)	0.4 (≈ 1.13 µM)
COc1ccc2cc(-c3ccccc3)c(C(=O)C(=O)Nc3ccc(C)cc3)n2c1 [Example 196, 2-(6-Methoxy-2-phenyl-indolizin-3-yl)-2-oxo-N-p-tolyl-acetamide]	0.12 (≈ 0.312 µM)	0.062 (≈ 0.161 µM)	0.8 (≈ 2.08 µM)	0.5 (≈ 1.3 µM)	0.12 (≈ 0.312 µM)	0.8 (≈ 2.08 µM)
O=C(Nc1ccc(F)cc1)C(=O)c1c(-c2ccccc2)cc2ccccn12 [Example 200, N-(4-Fluoro-phenyl)-2-oxo-2-(2-phenyl-indolizin-3-yl)-acetamide]	0.015 (≈ 0.0419 µM)	0.015 (≈ 0.0419 µM)	0.25 (≈ 0.698 µM)	0.031 (≈ 0.0865 µM)	0.062 (≈ 0.173 µM)	0.25 (≈ 0.698 µM)
O=C(Nc1ccccc1F)C(=O)c1c(-c2ccccc2)cc2ccccn12 [Example 201, N-(2-Fluoro-phenyl)-2-oxo-2-(2-phenyl-indolizin-3-yl)-acetamide]	0.015 (≈ 0.0419 µM)	0.015 (≈ 0.0419 µM)	0.5 (≈ 1.4 µM)	0.015 (≈ 0.0419 µM)	0.12 (≈ 0.335 µM)	0.25 (≈ 0.698 µM)
